Assay results as given in US4447610A, “10-Substituted 5-cyanomethylene-dibenzo[A,B]-cycloheptenes, their preparations, and therapeutic agents containing these compounds” (BASF Aktiengesellschaft, priority 1980, dated 1984).

Key:
[1] = test system: orientation hypermotility; experiment: Sedative action: decrease in orientation hypermotility of mice; type: in vivo, female NMRI mice; settings: for ED50: Mus musculus, 0.5 h, mice, oral, 30 min after administration, measured for 30 min, read-out: Sedative action ED 50%; for Sedative action R.A. (relative activity): clozapine = 1.00; for sedative-hypnotic effects (in words): compared with clozapine and perlapine
Experimental: 4-8 groups of 3 female NMRI mice are given the compound orally. The orientation hypermotility induced by a new environment is determined photoelectrically, 30 minutes after administration of the compound, for a period of 30 minutes.
The ED50% is the dose which produces a decrease in orientation hypermotility by 50%, compared to control animals treated with placebo.

[2] = test system: death from physostigmine; experiment: Anticholinergic action: protection against death from physostigmine (antiphysostigmine test); type: in vivo, female NMRI mice; settings: Mus musculus; mice, oral, 30 min before physostigmine 0.825 mg/kg s.c.; read-out: Anticholinergic action ED 50%
Experimental: 4. Anticholinergic action
Groups of 10 female NMRI mice are given physostigmine subcutaneously, at a lethal dose (0.825 mg/kg). The test substances are administered orally 30 minutes before the administration of physostigmine.
The ED 50% is determined as the dose of compound which protects 50% of the animals against death from physostigmine.

[3] = test system: tonic extensor reflex on the rabbit gastrocnemius; experiment: Muscle-relaxing action: tonic extensor reflex on the rabbit gastrocnemius; type: in vivo; settings: for Muscle relaxation R.A. (relative activity): clozapine = 1.00; for muscle-relaxing properties (in words): rabbit, in vivo
Source text: 2. Muscle-relaxing action The measurement is based on quantifying the tonic extensor reflex on the rabbit gastrocnemius (Teschendorf et al., Arch. Pharmacol. exp. Path. 266 (1970), 462). The rabbit is fixed in a special apparatus which permits bending the paw at the talocalcanean joint in a defined and reproducible manner. As a result of this bending, a tonic extensor reflex is triggered in the […]. The electrical activity of the muscle during contraction is registered and the individual pulses are counted. The extension (duration 5 s) is repeated at intervals of one minute. After a constant number of pulses has been reached (constituting the control value), the test substance is administered intravenously. The number of pulses after administration is related to the previous value. For each dose investigated, 4-6 animals are used. The ED 50% is the dose which reduces the muscle activity to half, based on the initial value.

[4] = test system: tryptamine-induced clonic front paw movements; experiment: Antitryptamine action: inhibition of tryptamine-induced front paw movements; type: in vivo, rats; settings: for ED50: Rattus norvegicus, ip, rats, intraperitoneal, 30 min before tryptamine.HCl 16 mg/kg i.v., read-out: Antitryptamine action ED 50%; for Antitryptamine action R.A. (relative activity): clozapine = 1.00
Experimental: 3. Antitryptamine action Tryptamine.HCl (16 mg/kg administered intravenously) regularly causes the following symptoms in rats: clonic front paw movements, back-arching and retropulsion, as well as mandibular movements (Tedeschi et al., J. Pharmacol. Exp. Ther. 126 (1959), 223). The test substances are administered intraperitoneally 30 minutes before the tryptamine. […] The mean inhibitory dose (ED 50%) is determined, by means of Probit analysis, as the dose which prevents the symptom in half the animals.

[5] = Acute toxicity; settings: mouse, in vivo, ip; mice, intraperitoneal; read-out: Toxicity LD 50
Experimental: Groups of 5-10 female NMRI mice are given the compounds intraperitoneally. The LD 50 is determined as the dose after which 50% of the treated animals die.

| SMILES | ED50 [1] | Sedative action R.A. (relative activity) [1] | ED50 [2] | Muscle relaxation R.A. (relative activity) [3] | ED50 [4] | Antitryptamine action R.A. (relative activity) [4] | sedative-hypnotic effects (in words) [1] | muscle-relaxing properties (in words) [3] | LD50 [5] | antimonaminergic action, tryptamine antagonism (in words) ([4]; compared with reference substances) |
| --- | --- | --- | --- | --- | --- | --- | --- | --- | --- | --- |
| CN1CCN(C2=Cc3cc(Cl)ccc3C(=CC#N)c3ccccc32)CC1 [Example 4, cis- and trans-2-Chloro-5-cyanomethylene-10-(4-methylpiperazin-1-yl)-dibenzo[a,d]-cycloheptene] | 2 mg/kg | 2.37 | > 21.5 mg/kg | 10.00 |  |  |  |  |  |  |
| CN1CCN(C2=Nc3cc(Cl)ccc3Nc3ccccc32)CC1 [Clozapine, reference compound] |  | 1.00 | 14.1 mg/kg |  | 5 mg/kg | 1.00 |  |  |  |  |
| CN1CCN(C2=Cc3ccccc3/C(=C/C#N)c3ccccc32)CC1 [Example 1a] | 0.8 mg/kg | 5.92 | > 10 mg/kg | 54.12 | 8.6 mg/kg | 0.58 | particularly pronounced | particularly pronounced |  |  |
| CCN1CCN(C2=Cc3ccccc3C(=CC#N)c3ccccc32)CC1 (mixture of isomers) [Example 5, cis,trans-5-Cyanomethylene-10-(4-ethyl-piperazin-1-yl)-dibenzo[a,d]-cycloheptene] | 1.38 mg/kg | 3.43 | > 21.5 mg/kg | 3.54 | 18.6 mg/kg | 0.27 |  |  | 287 mg/kg |  |
| CN1CCN(C2=Cc3ccccc3C(=CC#N)c3ccccc32)CC1 [Example 1, cis- and trans-5-Cyanomethylene-10-(4-methyl-piperazin-1-yl)-dibenzo[a,d]-cycloheptene] | 0.96 mg/kg | 4.94 | > 10 mg/kg | 7.19 |  |  |  |  | 324 mg/kg |  |
| CN1CCN(C2=Nc3ccccc3Cc3ccccc32)CC1 [Perlapine, reference compound] |  |  | > 21.5 mg/kg |  | 4.1 mg/kg | 1.22 |  |  |  |  |
| CN1CCN(C2=Cc3cc(Cl)ccc3/C(=C/C#N)c3ccccc32)CC1 [Example 4a, cis-5-cyanomethylene-2-chloro-10-(4-methyl-piperazin-1-yl)-dibenzo[a,d]-cycloheptene] | 0.44 mg/kg | 10.77 | > 21.5 mg/kg | 10.00 | 0.7 mg/kg | 7.14 | particularly pronounced | particularly pronounced |  | markedly more pronounced |
| N#CC=C1c2ccccc2C=C(N2CCN(CCO)CC2)c2ccccc21 (mixture of isomers) [Example 7, cis,trans-5-Cyanomethylene-10-(N-β-hydroxyethyl-piperazin-1-yl)-dibenzo[a,d]-cycloheptene.1/2 H2 O] | 0.97 mg/kg | 4.89 | > 21.5 mg/kg | 3.54 |  |  |  |  | > 100 mg/kg |  |
| C[N+]1([O-])CCN(C2=Cc3ccccc3C(=CC#N)c3ccccc32)CC1 (mixture of isomers) [Example 12, cis,trans-5-Cyanomethylene-10-(4-methyl-4-oxy-piperazin-1-yl)-dibenzo[a,d]-cycloheptene.21/2 H2 O] | 1.4 mg/kg | 3.39 | > 21.5 mg/kg | 0.46 | 12.5 mg/kg | 0.40 |  |  | > 100 mg/kg |  |
| CCN1CCN(C2=Cc3ccccc3/C(=C/C#N)c3ccccc32)CC1 [Example 5a, cis-5-cyanomethylene-10-(4-ethyl-piperazin-1-yl)-dibenzo[a,d]-cycloheptene] | 1 mg/kg | 4.74 | > 21.5 mg/kg | 4.60 | 11.2 mg/kg | 0.45 |  |  | > 100 mg/kg |  |
